# Results published in ChEMBL document CHEMBL3507680, “University of Dundee, Gates Library screen for HepG2 cell viability”.
# Test: Human HepG2 cell viability assay in 384 well format
# Type: toxicity, cell-based
# Parameters: dose 125 nL, time 70.5 hour; cytotoxicity at 70.5 h: concentration not given beside the values
# Conditions: HepG2 cells, read-out: Inhibition
compound,measurement,value
CC(O)CN1CCN(C(=O)c2sccc2C2CC2)CC1 (stereo unspecified),cytotoxicity at 70.5 h,-5.67%
COC(=O)CC(NC(=O)c1ccc(OC)cc1OC)c1cccs1 (stereo unspecified),cytotoxicity at 70.5 h,-11.2%
COc1ccc(C(=O)NC(CC(=O)O)c2cccs2)c(OC)c1 (stereo unspecified),cytotoxicity at 70.5 h,-11.6%
COc1cccc(C(=O)NC(CC(=O)O)c2cccs2)c1OC (stereo unspecified),cytotoxicity at 70.5 h,-9.47%
NC(=O)C1CCCN(c2ccc(CNC(=O)c3cnsn3)cc2)C1 (stereo unspecified),cytotoxicity at 70.5 h,-7.99%
NC(=O)C1CCCN(c2ccc(CNC(=O)c3csnn3)cc2)C1 (stereo unspecified),cytotoxicity at 70.5 h,-6.98%
CCn1cnnc1CNC(=O)N1CCC(CN2CCCCCC2)CC1,cytotoxicity at 70.5 h,-7.73%
CCn1cnnc1CNC(=O)N1CCC(CN2CCOCC2)CC1,cytotoxicity at 70.5 h,-14.7%
Cc1cnn(CC2CN(CC(=O)NCc3ccco3)CCO2)c1 (stereo unspecified),cytotoxicity at 70.5 h,-15.3%
Cc1cnn(CC2CN(CC(=O)NCc3ccc(C)s3)CCO2)c1 (stereo unspecified),cytotoxicity at 70.5 h,-13.6%
Cc1cnn(CC2CN(CC(=O)Nc3ccnn3C(C)C)CCO2)c1 (stereo unspecified),cytotoxicity at 70.5 h,-6.91%
Cc1nc(C)n(CC2CCCN2Cc2nc(C)c3ccccc3n2)n1 (stereo unspecified),cytotoxicity at 70.5 h,-7.3%
O=C(O)CC(NC(=O)c1ccccc1OC(F)F)c1cccs1 (stereo unspecified),cytotoxicity at 70.5 h,2.5%
COc1c(C2CCCN2C(=O)c2ccc(C#N)c(C)n2)c(C)nn1C (stereo unspecified),cytotoxicity at 70.5 h,-8.97%
COc1c(C2CCCN2Cc2nc(C3CC3)no2)c(C)nn1C (stereo unspecified),cytotoxicity at 70.5 h,9.69%
Cc1ccc(-c2nc(CN3CCOC(CN(C)C)C3)co2)cc1 (stereo unspecified),cytotoxicity at 70.5 h,-5.51%
O=C(CN1CCOC(Cn2cccn2)C1)NCc1ccccn1 (stereo unspecified),cytotoxicity at 70.5 h,-9.46%
CC(Oc1ccccc1)C(=O)N1CCCN(Cc2nccn2C)CC1 (stereo unspecified),cytotoxicity at 70.5 h,-10.4%
Cc1nccn1C1CCCN(C(=O)c2cc(Cl)c3c(c2)OCO3)C1 (stereo unspecified),cytotoxicity at 70.5 h,-5.54%
CSC(C)C(=O)N1CCCN(Cc2nccn2C)CC1 (stereo unspecified),cytotoxicity at 70.5 h,-1.04%
Cc1cnn(CC2CN(Cc3ccccn3)CCO2)c1 (stereo unspecified),cytotoxicity at 70.5 h,-5.81%
Cc1nn(C)c(N(C)C)c1CNCc1ccccc1Cn1cccn1,cytotoxicity at 70.5 h,-2.08%
CCN1CCC(NC(=O)CN2CCCCC2Cn2cncn2)CC1 (stereo unspecified),cytotoxicity at 70.5 h,0.615%
CCc1n[nH]c(C2CN(C(=O)c3cncnc3CC)CCO2)n1 (stereo unspecified),cytotoxicity at 70.5 h,0.869%
Cc1cnn(CCNCc2ccc(OCc3ccncc3)cc2)c1,cytotoxicity at 70.5 h,0.513%
CCn1ncc2c1CCCC2NCc1ccccc1N1CCOCC1 (stereo unspecified),cytotoxicity at 70.5 h,7.21%
CC(C)(C)n1ncc2c1CCCC2NCc1cccc2c1OCCO2 (stereo unspecified),cytotoxicity at 70.5 h,-7.2%
Cc1cnn(CC2CCCN2C(=O)Cc2ccc(C)nc2)c1 (stereo unspecified),cytotoxicity at 70.5 h,-7.79%
CCn1ncc2c1CCCC2NCc1cccc2c1OCCCO2 (stereo unspecified),cytotoxicity at 70.5 h,-0.304%
Cc1cnc(CN(C)C2CCN(CC(=O)N(C)c3nccs3)C2)o1 (stereo unspecified),cytotoxicity at 70.5 h,42.1%
Cc1cnc(CN(C)C2CCN(CC(=O)Nc3c(C)n[nH]c3C)C2)o1 (stereo unspecified),cytotoxicity at 70.5 h,11.7%
Cc1cc(CN(C)C(=O)c2cccc(N3CCCC3=O)c2)no1,cytotoxicity at 70.5 h,-9.25%
O=C(Nc1ccccc1OC(F)F)C1=NN(c2ccccc2)C(=O)CN1,cytotoxicity at 70.5 h,-8.48%
CC(Cn1cccn1)NC(=O)NCCc1ccc(Cl)s1 (stereo unspecified),cytotoxicity at 70.5 h,-5.79%
Cc1ccc(OCCNC(=O)C(C)n2cncn2)cc1 (stereo unspecified),cytotoxicity at 70.5 h,10.5%
OC(COCc1cccs1)CN1CCC(c2ccn[nH]2)CC1 (stereo unspecified),cytotoxicity at 70.5 h,-17.6%
COC(=O)c1ccc(N2CCN(C(=O)c3ccncc3)C(C)C2)cc1 (stereo unspecified),cytotoxicity at 70.5 h,15.3%
CC(NC(=O)N1CCC(n2cncn2)CC1)c1ccc(F)cc1F (stereo unspecified),cytotoxicity at 70.5 h,-13.6%
Cc1nc(CN2CCCN(C(=O)C3(C#N)CCCCC3)CC2)cs1,cytotoxicity at 70.5 h,-16.4%
O=C(NCCNc1ncccn1)N(Cc1ccc(F)cc1F)C1CC1,cytotoxicity at 70.5 h,-18.1%
CN(C)C(=O)N1CCN(Cc2noc(Cc3ccccc3)n2)CC1,cytotoxicity at 70.5 h,-5.82%
O=C(CCCOCc1ccccc1)N1CCCC1c1ccccn1 (stereo unspecified),cytotoxicity at 70.5 h,-12.6%
Cn1cc(C2CCCN2C(=O)CCCOCc2ccccc2)cn1 (stereo unspecified),cytotoxicity at 70.5 h,4.25%
CCc1nc2n(n1)CC(NCC(=O)Nc1nccs1)CC2 (stereo unspecified),cytotoxicity at 70.5 h,8%
O=C(CN1CCCCC1Cn1cncn1)NCCc1ccc(F)cc1 (stereo unspecified),cytotoxicity at 70.5 h,32.1%
CCN(C(=O)CS(=O)(=O)Cc1cc(Cl)c2c(c1)OCCCO2)C1CC1,cytotoxicity at 70.5 h,0.0743%
